Measurements reported in patent US9718804B2, “GSK-3 inhibitors” (BRISTOL-MYERS SQUIBB COMPANY, priority 2013, dated 2017).

Key:
GSK3β = GSK3β (Homo sapiens, UniProt P49841); experiment: GSK3β kinase assay (Caliper LabChip, fluoresceinated peptide substrate); format: biochemical; conditions: first value of the cell; 250 pM enzyme, 20 uM ATP, 20 hours at room temperature; read-out: GSK3β/α (nM): GSK3β IC50
Experimental: (§1) The kinase assay was performed in V-bottom 384-well plates. […] The reaction was incubated at room temperature for 20 hours and terminated by adding 45 μl of 35 mM EDTA to each sample. The reaction mixture was analyzed on the Caliper LabChip3000 (Caliper, Hopkinton, Mass.) by electrophoretic separation of the unphosphorylated substrate and phosphorylated product. […] Compounds were dissolved at 10 mM in dimethylsulfoxide (DMSO) and evaluated at eleven concentrations. IC50 values were derived by non-linear regression analysis.

GSK3α = GSK3α (Homo sapiens, UniProt P49840); experiment: GSK3α kinase assay (Caliper LabChip, fluoresceinated peptide substrate); format: biochemical
GSK3α, sequence (P49840 whole entry, species assumed): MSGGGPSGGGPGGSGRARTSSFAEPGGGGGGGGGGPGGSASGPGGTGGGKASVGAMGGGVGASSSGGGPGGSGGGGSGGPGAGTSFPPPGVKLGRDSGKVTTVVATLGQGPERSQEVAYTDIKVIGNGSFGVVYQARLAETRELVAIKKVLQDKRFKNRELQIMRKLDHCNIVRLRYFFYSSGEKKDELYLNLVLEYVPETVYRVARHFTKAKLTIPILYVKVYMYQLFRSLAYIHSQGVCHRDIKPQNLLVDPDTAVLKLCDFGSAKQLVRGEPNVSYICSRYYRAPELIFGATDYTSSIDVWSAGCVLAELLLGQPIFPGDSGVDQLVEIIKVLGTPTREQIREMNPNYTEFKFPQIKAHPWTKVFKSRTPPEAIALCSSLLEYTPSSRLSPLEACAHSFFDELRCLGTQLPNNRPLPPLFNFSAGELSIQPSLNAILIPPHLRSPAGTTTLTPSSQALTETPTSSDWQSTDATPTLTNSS
Experimental: as §1

pTau = pTau assay (no method described); format: cell-based

GSK3β, sequence (P49841 whole entry, species assumed): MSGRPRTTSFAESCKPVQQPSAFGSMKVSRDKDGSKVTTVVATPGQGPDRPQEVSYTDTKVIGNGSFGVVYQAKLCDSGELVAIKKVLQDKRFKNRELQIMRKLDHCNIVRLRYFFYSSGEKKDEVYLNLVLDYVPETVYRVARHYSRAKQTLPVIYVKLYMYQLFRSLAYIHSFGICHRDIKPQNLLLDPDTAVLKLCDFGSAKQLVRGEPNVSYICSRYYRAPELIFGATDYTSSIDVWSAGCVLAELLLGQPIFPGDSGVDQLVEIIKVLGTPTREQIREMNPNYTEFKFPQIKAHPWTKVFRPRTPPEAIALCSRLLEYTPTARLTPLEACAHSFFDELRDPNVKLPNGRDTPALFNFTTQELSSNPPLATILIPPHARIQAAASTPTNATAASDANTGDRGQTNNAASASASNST

`C[C@@H]1COCCN1c1ccncc1NC(=O)c1ccnc(Nc2ccc(C(F)(F)F)cn2)c1` [Example 21, (R)—N-(4-(3-Methylmorpholino)pyridin-3-yl)-2-((5-(trifluoromethyl)pyridin-2-yl)amino)isonicotinamide] gave an IC50 (GSK3β) of 0.7 nM, an IC50 (GSK3α) of 0.28 nM and an IC50 (pTau) of 9.1 nM.

With `O=C(Nc1cnccc1S(=O)(=O)CC(F)(F)F)c1ccnc(Nc2ccc(C(F)(F)F)cn2)c1` [Example 184, N-(4-((2,2,2-Trifluoroethyl)sulfonyl)pyridin-3-yl)-2-((5-(trifluoromethyl)pyridin-2-yl)amino)isonicotinamide] the IC50 (GSK3β) was 120 nM, the IC50 (GSK3α) was 4.8 nM and the IC50 (pTau) was 130 nM.

Compound `O=C(Nc1cnccc1OCCN1CCOCC1)c1ccnc(Nc2ccc(C(F)(F)F)cn2)c1` [Example 47, N-(4-(2-Morpholinoethoxy)pyridin-3-yl)-2-((5-(trifluoromethyl)pyridin-2-yl)amino)isonicotinamide] has an IC50 (GSK3β) of 18 nM, an IC50 (GSK3α) of 5.6 nM and an IC50 (pTau) of 420 nM.

Compound `O=C(Nc1cnccc1C1(F)COC1)c1ccnc(Nc2ccc(C(F)(F)F)cn2)c1` [Example 45, N-(4-(3-Fluorooxetan-3-yl)pyridin-3-yl)-2-((5-(trifluoromethyl)pyridin-2-yl)amino)isonicotinamide] has an IC50 (GSK3β) of 17 nM, an IC50 (GSK3α) of 11 nM and an IC50 (pTau) of 150 nM.

Work on `O=C(Nc1cnc(F)cc1OCC(F)(F)F)c1ccnc(Nc2ccc(Cl)cn2)c1` [Example 110, 2-((5-Chloropyridin-2-yl)amino)-N-(6-fluoro-4-(2,2,2-trifluoroethoxy)pyridin-3-yl)isonicotinamide] yielded an IC50 (GSK3β) of 3.8 nM, an IC50 (GSK3α) of 0.51 nM and an IC50 (pTau) of 170 nM.

For `O=C(Nc1cnccc1N1CCCCC1)c1ccnc(Nc2ccc(C(F)(F)F)cn2)c1` [Example 23, N-(4-(Piperidin-1-yl)pyridin-3-yl)-2-((5-(trifluoromethyl)pyridin-2-yl)amino)isonicotinamide], the IC50 (GSK3β) was 0.24 nM, the IC50 (GSK3α) was 0.15 nM and the IC50 (pTau) was 6.5 nM.

`O=C(Nc1cnccc1N1CCC(F)(F)CC1)c1ccnc(Nc2ccc(C(F)(F)F)cn2)c1` [Example 24, N-(4-(4,4-Difluoropiperidin-1-yl)pyridin-3-yl)-2-((5-(trifluoromethyl)pyridin-2-yl)amino)isonicotinamide] was tested, and the IC50 (GSK3β) was 0.69 nM, the IC50 (GSK3α) was 0.49 nM and the IC50 (pTau) was 4.6 nM.

In the case of `Cc1cc(-c2ccccc2)c(NC(=O)c2ccnc(Nc3ccc(C(F)(F)F)cn3)c2)cn1` [Example 68, N-(6-Methyl-4-phenylpyridin-3-yl)-2-((5-(trifluoromethyl)pyridin-2-yl)amino)isonicotinamide], the IC50 (GSK3β) is reported as 12 nM, the IC50 (GSK3α) is reported as 5.7 nM and the IC50 (pTau) is reported as 1010 nM.

`O=C(Nc1cnc(Cl)cc1C(=O)C1CC1)c1ccnc(Nc2ccc(C(F)(F)F)cn2)c1` [Example 92, N-(6-Chloro-4-(cyclopropanecarbonyl)pyridin-3-yl)-2-((5-(trifluoromethyl)pyridin-2-yl)amino)isonicotinamide] showed an IC50 (GSK3β) of 8.8 nM, an IC50 (GSK3α) of 4 nM and an IC50 (pTau) of 1400 nM.

`CN(C)S(=O)(=O)c1ccc(Nc2cc(C(=O)Nc3cncc(-c4ccccc4F)c3)ccn2)nc1` [Example 157, 2-((5-(N,N-Dimethylsulfamoyl)pyridin-2-yl)amino)-N-(5-(2-fluorophenyl)pyridin-3-yl)isonicotinamide] gave an IC50 (GSK3β) of 3.6 nM, an IC50 (GSK3α) of 1.6 nM and an IC50 (pTau) of 750 nM.

In the case of `O=C(Nc1cnccc1-c1ccc(F)cc1)c1ccnc(Nc2cccc(Cl)n2)c1` [Example 48, 2-((6-Chloropyridin-2-yl)amino)-N-(4-(4-fluorophenyl)pyridin-3-yl)isonicotinamide], the IC50 (GSK3β) is reported as 2.9 nM, the IC50 (GSK3α) is reported as 1.9 nM and the IC50 (pTau) is reported as 270 nM.

`N#CC1(c2ccc(Nc3cc(C(=O)Nc4cncc(-c5ccccc5F)c4)ccn3)nc2)CC1` [Example 163, 2-((5-(1-Cyanocyclopropyl)pyridin-2-yl)amino)-N-(5-(2-fluorophenyl)pyridin-3-yl)isonicotinamide] was tested, and the IC50 (GSK3β) was 3.2 nM, the IC50 (GSK3α) was 1.1 nM and the IC50 (pTau) was 610 nM.
